Test results taken from patent US10125134B2 (Mirati Therapeutics, Inc., priority 2016, dated 2018).
Like-named read-outs stand apart in the source and are kept apart here.

Tests used:
KRas G12C = KRas G12C (Homo sapiens, UniProt P01116, C118S/C51S/C80L/G12C); assay: KRas G12C Modification Assay (LCMS detection of covalent adduct); type: binding; conditions: normalized percent of control; tested at 5 μM concentration for 3 hours
Method: A 10 μL aliquot of each protein solution was then transferred to a 384 well microtiter plate. Initial compound stocks were generated at fifty times their desired final assay concentration in DMSO.
Exemplary compounds of Formula (I) were diluted 25-fold into K-Ras Assay Buffer to a final of two times their final concentration. A 10 μL aliquot of each diluted compound solution was then added to each of the protein solutions in the microtiter plate to initiate reaction. […] At each time point, the reactions were quenched with 20 μL of a 25 mM acetic acid solution. […] Once all reactions were quenched, the plates were heat sealed and the samples were injected into a LC/MS system for data acquisition.
Samples were injected in their liquid phase onto a C-3 reverse phase column to remove assay buffer and prepare the samples for mass spectrometer. The proteins were eluted from the column using an acetonitrile gradient and fed directly into the mass analyzer. Initial raw data analysis took place in Agilent MassHunter software immediately post data acquisition.
Raw data analysis of the intact protein was exclusively a deconvolution of the multiple charge states of each protein in solution using a maximum entropy deconvolution provided in Mass Hunter. To minimize complexity, only the data over limited mass ranges were considered for analysis, with a minimum of one Dalton mass step intervals. The heights of all masses identified during raw data analysis were exported to be further analyzed in Spotfire® data analysis software.
Final data analysis was a multistep process in the Spotfire® data analysis software package. Briefly, each protein mass was calculated as a percent of the total signal of that sample, that percentage was then normalized to the percentage of signal of the protein in the absence of reactive compounds. Those normalized signals were reported as normalized percent of control (POC). […] Key: “A”≤25% POC; “B”>25% POC−≤50% POC; “C”>50% POC and ND=not determined.

[1] = test system: NCI-H358 cells (express KRas G12C), Phospho-ERK; assay: Cellular inhibition of KRas G12C: Phospho-ERK in NCI-H358 cells; type: cell-based
Method: The cellular inhibition of KRAs G12C by exemplary compounds of the present invention was determined by measuring the amount of a downstream marker of KRas activity, phosphorylated ERK (“Phospho-ERK”).
Cells were plated in poly-D-Lysine coated 96-well plates at a concentration of 50,000 cells/well and allowed to attach for 8-12 hours. Diluted compounds were then added at a final concentration of 0.5% DMSO. After 3 hours, the medium was removed, 150 μL of 4% formaldehyde was added and the plates were incubated for 20 minutes. The plates were washed with PBS, and permeabilized using 150 μL of ice cold 100% methanol for 10 minutes. Non-specific antibody binding to the plates was blocked using 100 μL Licor Blocking Buffer (Li-Cor Biotechnology, Lincoln Nebr.) for 1 hour at room temperature. Positive control samples and samples lacking cells were parallel processed with test samples as standards.
The amount Phospho-ERK was determined using an antibody specific for the phosphorylated form of ERK and compared to the amount of GAPDH. […] The plates were incubated for 2 hours at room temperature. The plates were washed with PBS+0.05% Tween 20.
Secondary antibodies used to visualize primary antibodies were added as follows: Anti-rabbit-680 diluted 1:1000 and Anti-mouse-800 diluted 1:1000 in Licor Block+0.05% Tween 20 and incubated for 1 hour at room temperature. The plates were washed with PBS+0.05% Tween 20. A 100 μL aliquot of PBS was added to each well and the plates were read on a LICOR AERIUS plate reader.
The pERK(Thr202/Tyr204) signal was normalized with the GAPDH signal and percent of DMSO control values were calculated. IC50 values were generated using a 4 parameter fit of the dose response curve. Key: “A”≥0.0001−≤1 μM; and “B”>1 μM.

[2] = Homo sapiens, NCI-H358, 3 h, pERK(Thr202/Tyr204) normalized with GAPDH, NCI-H358 cells, 3 hours, read-out: IC50
[3] = Homo sapiens, pERK(Thr202/Tyr204) normalized with GAPDH, NCI-H358 cells, 3 hours, read-out: IC50
[4] = pERK(Thr202/Tyr204) normalized with GAPDH, NCI-H358 cells, 3 hours, read-out: IC50

POC (KRas G12C)	Compound	IC50 [1, 2]	also measured
C (“C”>50% POC)	C=CC(=O)N1CCN(c2nc(OC[C@@H]3CCCC(=O)N3)nc3c2CCN(c2cc(O)cc4ccccc24)C3)CC1 (single isomer, unassigned) [Example 61]	> 1000 nM	–
C (“C”>50% POC)	C=CC(=O)N1CCN(c2nc(OC[C@H]3CCCC(=O)N3)nc3c2CCN(c2cc(O)cc4ccccc24)C3)CC1 (single isomer, unassigned) [Example 62]	> 1000 nM	–
C (“C”>50% POC)	C=CC(=O)N1CCN(c2nc(OC[C@H](O)CN3CCOCC3)nc3c2CCN(c2cc(O)cc4ccccc24)C3)CC1 (single isomer, unassigned) [Example 215]	> 1000 nM	–
C (“C”>50% POC)	C=CC(=O)N1CCN(c2nc(OC[C@@H](O)CN3CCOCC3)nc3c2CCN(c2cc(O)cc4ccccc24)C3)CC1 (single isomer, unassigned) [Example 216]	> 1000 nM	–
B (“B”>25% POC−≤50% POC)	C=CC(=O)N1CCN(c2ncnc3c2CCN(c2cc(O)cc4ccccc24)C3)CC1 [Example 1, 1-(4-(7-(3-hydroxynaphthalen-1-yl)-5,6,7,8-tetrahydropyrido[3,4-d]pyrimidin-4-yl)piperazin-1-yl)prop-2-en-1-one]	> 1000 nM	–
A (“A”≤25% POC)	C=CC(=O)N1CCN(c2ncnc3c2CCN(c2cccc4ccc(O)cc24)C3)CC1 [Example 2, 1-(4-(7-(7-hydroxynaphthalen-1-yl)-5,6,7,8-tetrahydropyrido[3,4-d]pyrimidin-4-yl)piperazin-1-yl)prop-2-en-1-one]	> 1000 nM	–
A (“A”≤25% POC)	C=CC(=O)N1CCN(c2ncnc3c2CCN(c2cccc4ccccc24)C3)CC1 [Example 3, 1-(4-(7-(naphthalen-1-yl)-5,6,7,8-tetrahydropyrido[3,4-d]pyrimidin-4-yl)piperazin-1-yl)prop-2-en-1-one]	> 1000 nM	–
C (“C”>50% POC)	C=CC(=O)N1CCN(c2nc(OC[C@H]3CN(C)CCO3)nc3c2CCN(c2cccc4ccccc24)C3)CC1CC#N (stereo partly drawn) [Example 441, 2-(1-Acryloyl-4-(2-(((R)-4-methylmorpholin-2-yl)methoxy)-7-(naphthalen-1-yl)-5,6,7,8-tetrahydropyrido[3,4-d]pyrimidin-4-yl)piperazin-2-yl)acetonitrile]	–	–

The remaining lines, values behind:

Compound	POC (KRas G12C)	IC50 [1, 2]	also measured
C=CC(=O)N1CCN(c2ncnc3c2CCN(c2c(O)cccc2F)C3)CC1 [Example 4, 1-(4-(7-(2-fluoro-6-hydroxyphenyl)-5,6,7,8-tetrahydropyrido[3,4-d]pyrimidin-4-yl)piperazin-1-yl)prop-2-en-1-one]	A (“A”≤25% POC)	> 1000 nM	–
C=CC(=O)N1CCN(c2nc(OC[C@@H]3CCCN3C)nc3c2CCN(c2cc(O)cc4ccccc24)C3)CC1 [Example 127, (S)-1-(4-(7-(3-hydroxynaphthalen-1-yl)-2-((1-methylpyrrolidin-2-yl)methoxy)-5,6,7,8-tetrahydropyrido[3,4-d]pyrimidin-4-yl)piperazin-1-yl)prop-2-en-1-one]	–	–	IC50 ([1]; Homo sapiens, NCI-H358, 3 h): 0.1 to 1000 nM
C=CC(=O)N1CCN(c2nc(OC[C@H]3CCCN3C)nc3c2CCN(c2cc(O)cc4ccccc24)C3)CC1 [Example 187, (R)-1-(4-(7-(3-hydroxynaphthalen-1-yl)-2-((1-methylpyrrolidin-2-yl)methoxy)-5,6,7,8-tetrahydropyrido[3,4-d]pyrimidin-4-yl)piperazin-1-yl)prop-2-en-1-one]	–	–	IC50 ([1]; Homo sapiens, NCI-H358, 3 h): 0.1 to 1000 nM
C=CC(=O)N1CCN(c2nc(OC[C@@H]3CCCN3C)nc3c2CCN(c2cccc4ccccc24)C3)CC1 [Example 200, (S)-1-(4-(2-((1-methylpyrrolidin-2-yl)methoxy)-7-(naphthalen-1-yl)-5,6,7,8-tetrahydropyrido[3,4-d]pyrimidin-4-yl)piperazin-1-yl)prop-2-en-1-one]	–	–	IC50 ([1]; Homo sapiens, NCI-H358, 3 h): > 1000 nM
CC#CC(=O)N1CCN(c2nc(OC[C@@H]3CCCN3C)nc3c2CCN(c2cccc4ccccc24)C3)CC1CC#N (stereo partly drawn) [Example 242, 2-(1-(but-2-ynoyl)-4-(2-(((S)-1-methylpyrrolidin-2-yl)methoxy)-7-(naphthalen-1-yl)-5,6,7,8-tetrahydropyrido[3,4-d]pyrimidin-4-yl)piperazin-2-yl)acetonitrile]	–	–	IC50 [1, 3]: 0.1 to 1000 nM
C=CC(=O)N1CCN(c2nc(OC[C@]3(C)CCCN3C)nc3c2CCN(c2cccc4ccccc24)C3)CC1CC#N (stereo partly drawn) [Example 251, 2-(1-acryloyl-4-(2-(((S)-1,2-dimethylpyrrolidin-2-yl)methoxy)-7-(naphthalen-1-yl)-5,6,7,8-tetrahydropyrido[3,4-d]pyrimidin-4-yl)piperazin-2-yl)acetonitrile]	–	–	IC50 ([1]; Homo sapiens, NCI-H358, 3 h): 0.1 to 1000 nM
C=CC(=O)N1CCN(c2nc(OC[C@@H]3CCCN3C)nc3c2CCN(c2cccc4cccc(Cl)c24)C3)CC1CC#N (stereo partly drawn) [Example 310, 2-(1-acryloyl-4-(7-(8-chloronaphthalen-1-yl)-2-(((S)-1-methylpyrrolidin-2-yl)methoxy)-5,6,7,8-tetrahydropyrido[3,4-d]pyrimidin-4-yl)piperazin-2-yl)acetonitrile]	–	–	IC50 ([1]; Homo sapiens, NCI-H358, 3 h): 0.1 to 1000 nM
C=CC(=O)N1CCN(c2nc(OC[C@@H]3CCCN3C)nc3c2CCN(c2cccc4cccc(Cl)c24)C3)C[C@@H]1CC#N [Example 331, 2-[(2S)-4-[7-(8-chloro-1-naphthyl)-2-[[(2S)-1-methylpyrrolidin-2-yl]methoxy]-6,8-dihydro-5H-pyrido[3,4-d]pyrimidin-4-yl]-1-prop-2-enoyl-piperazin-2-yl]acetonitrile]	–	–	IC50 ([1]; Homo sapiens, NCI-H358, 3 h): 0.1 to 1000 nM
C=CC(=O)N1CCN(c2nc(OC[C@H]3CCCN3C)nc3c2CCN(c2cccc(F)c2C(F)(F)F)C3)C[C@@H]1CC#N [Example 382, 2-((S)-1-acryloyl-4-(7-(3-fluoro-2-(trifluoromethyl)phenyl)-2-(((R)-1-methylpyrrolidin-2-yl)methoxy)-5,6,7,8-tetrahydropyrido[3,4-d]pyrimidin-4-yl)piperazin-2-yl)acetonitrile]	–	–	IC50 [1, 4]: 0.1 to 1000 nM
C=CC(=O)N1CCN(c2nc(OC[C@@H]3CCCN3C)nc3c2CCN(c2cccc(C)c2C(F)(F)F)C3)C[C@@H]1CC#N [Example 392, 2-((S)-1-acryloyl-4-(7-(3-methyl-2-(trifluoromethyl)phenyl)-2-(((S)-1-methylpyrrolidin-2-yl)methoxy)-5,6,7,8-tetrahydropyrido[3,4-d]pyrimidin-4-yl)piperazin-2-yl)acetonitrile]	–	–	IC50 [1, 4]: 0.1 to 1000 nM
C=CC(=O)N1CCN(c2nc(OC[C@H]3CN(C)[C@H](C)CO3)nc3c2CCN(c2cccc4ccccc24)C3)C[C@@H]1CC#N [Example 449, 2-((S)-1-Acryloyl-4-(2-(((2R,5R)-4,5-dimethylmorpholin-2-yl)methoxy)-7-(naphthalen-1-yl)-5,6,7,8-tetrahydropyrido[3,4-d]pyrimidin-4-yl)piperazin-2-yl)acetonitrile]	C (“C”>50% POC)	–	–
C=CC(=O)N1CCN(c2nc(OC[C@@H]3CCCN3C)nc3c2CCN(c2cccc4cccc(OC)c24)C3)C[C@@H]1CC#N [Example 463, 2-((S)-1-acryloyl-4-(7-(8-methoxynaphthalen-1-yl)-2-(((S)-1-methylpyrrolidin-2-yl)methoxy)-5,6,7,8-tetrahydropyrido[3,4-d]pyrimidin-4-yl)piperazin-2-yl)acetonitrile]	–	–	IC50 [1, 3]: > 1000 nM
C=CC(=O)N1CCN(c2nc(OC[C@@H]3CCCN3C)nc3c2CCN(c2cccc4cccc(C#N)c24)C3)C[C@@H]1CC#N [Example 464, 8-(4-((S)-4-acryloyl-3-(cyanomethyl)piperazin-1-yl)-2-(((S)-1-methylpyrrolidin-2-yl)methoxy)-5,8-dihydropyrido[3,4-d]pyrimidin-7(6H)-yl)-1-naphthonitrile]	–	–	IC50 [1, 3]: 0.1 to 1000 nM
